Reference: ChEMBL document CHEMBL1201862, “PubChem BioAssay data set” (2004)
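Exposure lasted 48 hours, with cells grown in 96-well plates and compounds tested at five concentrations. At the GI50, growth is halved.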 Active and inactive are the calls of the source. No stated cut-off is given here; in the data, active = GI50 up to about 1.1 µM and inactive = higher.

Experiments:
Assay in all cases: NCI anticancer screen, dose series, 48 h
A549 = tested on: A549
BT-549 = tested on: BT-549
CCRF-CEM = tested on: CCRF-CEM
HCT-116 = tested on: HCT-116
HOP-62 = tested on: HOP-62
HT-29 = tested on: HT-29
IGROV-1 = tested on: IGROV-1
KM12 = tested on: KM12
MDA-MB-231 = tested on: MDA-MB-231
NCI-H460 = tested on: NCI-H460
RPMI-8226 = tested on: RPMI-8226
SF-268 = tested on: SF-268
SN12C = tested on: SN12C
SW-620 = tested on: SW-620
T47D = tested on: T47D
TK-10 = tested on: TK-10
M19-MEL = tested on: M19-MEL

| Compound | GI50 (A549) | GI50 (BT-549) | GI50 (CCRF-CEM) | GI50 (HCT-116) | GI50 (HOP-62) | GI50 (HT-29) | GI50 (IGROV-1) | GI50 (KM12) | GI50 (MDA-MB-231) | GI50 (NCI-H460) | GI50 (RPMI-8226) | GI50 (SF-268) | GI50 (SN12C) | GI50 (SW-620) | GI50 (T47D) | GI50 (TK-10) | GI50 (M19-MEL) |
| --- | --- | --- | --- | --- | --- | --- | --- | --- | --- | --- | --- | --- | --- | --- | --- | --- | --- |
| COC(=O)c1ccccc1C1CN=NC12Cc1ccc(C)cc1C2=O (centres undefined) | 47.6 µM (inactive) | 47.9 µM (inactive) | > 100 µM (inactive) | 38.6 µM (inactive) | > 100 µM (inactive) | 42.6 µM (inactive) | 63.8 µM (inactive) | 37.9 µM (inactive) | > 100 µM (inactive) | > 100 µM (inactive) | 49.7 µM (inactive) | > 100 µM (inactive) | 58.6 µM (inactive) | 45.2 µM (inactive) | 29.4 µM (inactive) | > 100 µM (inactive) | – |
| C/C=C/[C@H]1O[C@@](OC)([C@@H](C)[C@H](O)[C@H](C)[C@H]2OC(=O)/C(OC)=C/C(C)=C/[C@@H](C)[C@@H](O)[C@@H](C)[C@@H](O)[C@H](C)C/C(C)=C/C=C/[C@@H]2OC)CC(OC2CC(O)C(OC(N)=O)C(C)O2)[C@@H]1C (some centres undefined) | < 0.01 µM (active) | < 0.01 µM (active) | < 0.01 µM (active) | < 0.01 µM (active) | < 0.01 µM (active) | < 0.01 µM (active) | < 0.01 µM (active) | < 0.01 µM (active) | < 0.01 µM (active) | < 0.01 µM (active) | < 0.01 µM (active) | < 0.01 µM (active) | 0.589 µM (active) | < 0.01 µM (active) | < 0.01 µM (active) | 8.79 µM (inactive) | – |
| Cc1nc2c(O)nc3ccccc3c2o1 | > 100 µM (inactive) | > 100 µM (inactive) | > 100 µM (inactive) | > 100 µM (inactive) | > 100 µM (inactive) | > 100 µM (inactive) | 32 µM (inactive) | > 100 µM (inactive) | > 100 µM (inactive) | > 100 µM (inactive) | > 100 µM (inactive) | > 100 µM (inactive) | > 100 µM (inactive) | > 100 µM (inactive) | > 100 µM (inactive) | > 100 µM (inactive) | – |
| N#Cc1nc(C#N)n(S(=O)(=O)c2ccccc2)c1NS(=O)(=O)c1ccccc1 | > 100 µM (inactive) | > 100 µM (inactive) | > 100 µM (inactive) | > 100 µM (inactive) | > 100 µM (inactive) | > 100 µM (inactive) | > 100 µM (inactive) | > 100 µM (inactive) | > 100 µM (inactive) | > 100 µM (inactive) | > 100 µM (inactive) | > 100 µM (inactive) | > 100 µM (inactive) | > 100 µM (inactive) | > 100 µM (inactive) | > 100 µM (inactive) | – |
| Cc1cccc(/C=N/NC(=S)NC2CCCCC2)n1 | 28.9 µM (inactive) | 31 µM (inactive) | 1.14 µM (inactive) | 4.02 µM (inactive) | 20.9 µM (inactive) | 3.27 µM (inactive) | 21.3 µM (inactive) | 31.1 µM (inactive) | 35.1 µM (inactive) | 13.5 µM (inactive) | 6.92 µM (inactive) | 32 µM (inactive) | 27.4 µM (inactive) | 9.25 µM (inactive) | 2.58 µM (inactive) | 58.5 µM (inactive) | – |
| Cc1ccc(-c2nc(N/N=C/c3ccc(O)cc3)c3ccccc3n2)cc1 | 6.14 µM (inactive) | 28 µM (inactive) | 15.8 µM (inactive) | 14.1 µM (inactive) | 31.9 µM (inactive) | 27.7 µM (inactive) | 8.47 µM (inactive) | 13.5 µM (inactive) | 19.4 µM (inactive) | 9.91 µM (inactive) | 40.7 µM (inactive) | 18.8 µM (inactive) | 8.2 µM (inactive) | 19 µM (inactive) | 5.22 µM (inactive) | 24.3 µM (inactive) | – |
| CCN(CC)/[N+]([O-])=N/OCC(C)O (centres undefined) | > 100 µM (inactive) | – | > 100 µM (inactive) | > 100 µM (inactive) | > 100 µM (inactive) | > 100 µM (inactive) | > 100 µM (inactive) | > 100 µM (inactive) | – | > 100 µM (inactive) | – | > 100 µM (inactive) | > 100 µM (inactive) | > 100 µM (inactive) | – | > 100 µM (inactive) | > 100 µM (inactive) |
| CC(=O)NNc1nc(C)c(C(/C=C/c2ccc([N+](=O)[O-])cc2)=N/NC(N)=S)s1 | > 100 µM (inactive) | > 100 µM (inactive) | > 100 µM (inactive) | > 100 µM (inactive) | > 100 µM (inactive) | > 100 µM (inactive) | > 100 µM (inactive) | > 100 µM (inactive) | > 100 µM (inactive) | > 100 µM (inactive) | > 100 µM (inactive) | > 100 µM (inactive) | > 100 µM (inactive) | > 100 µM (inactive) | > 100 µM (inactive) | > 100 µM (inactive) | – |
| CC1=C(C)CC2C(=O)N(c3cc(C(C)(C)C)ccc3C(C)(C)C)C(=O)C2C1 (centres undefined) | 69.5 µM (inactive) | 24.7 µM (inactive) | > 100 µM (inactive) | 50 µM (inactive) | 26.2 µM (inactive) | > 100 µM (inactive) | 61 µM (inactive) | > 100 µM (inactive) | > 100 µM (inactive) | > 100 µM (inactive) | > 100 µM (inactive) | 7.91 µM (inactive) | > 100 µM (inactive) | > 100 µM (inactive) | > 100 µM (inactive) | 66.1 µM (inactive) | – |
| CCOC(=O)/C1=C(\C)N(c2ccc(C)cc2)C(=O)c2ccccc2C(=O)c2c(O)ccc(O)c21 | 26.6 µM (inactive) | 27.7 µM (inactive) | 20.6 µM (inactive) | 19.5 µM (inactive) | 20.7 µM (inactive) | 19.5 µM (inactive) | 18.9 µM (inactive) | 23 µM (inactive) | 14.1 µM (inactive) | 23.2 µM (inactive) | 11.7 µM (inactive) | 27.7 µM (inactive) | 25.9 µM (inactive) | 27.6 µM (inactive) | 13.4 µM (inactive) | 26.2 µM (inactive) | – |
| O=C1N[C@H]2c3c(Cl)sc(Cl)c3/C(=N/O)[C@H]2O1 | > 100 µM (inactive) | > 100 µM (inactive) | 52.2 µM (inactive) | 80.7 µM (inactive) | > 100 µM (inactive) | > 100 µM (inactive) | 72.3 µM (inactive) | > 100 µM (inactive) | > 100 µM (inactive) | 76.4 µM (inactive) | > 100 µM (inactive) | > 100 µM (inactive) | > 100 µM (inactive) | > 100 µM (inactive) | > 100 µM (inactive) | > 100 µM (inactive) | – |
| CC(=O)OC(C)(C)[C@H]1O[C@]23O[C@]1(C)C[C@@H](C)[C@@H]2[C@@]1(C)CC[C@@]24C[C@@]25CC[C@H](O[C@@H]2OC[C@@H](O)[C@H](O)[C@H]2O)C(C)(C)[C@@H]5CC[C@H]4[C@]1(C)[C@H]3O | 6.41 µM (inactive) | 16.3 µM (inactive) | 5.94 µM (inactive) | 6.67 µM (inactive) | 11.9 µM (inactive) | 8.38 µM (inactive) | 7.08 µM (inactive) | 3.35 µM (inactive) | 4.61 µM (inactive) | 7.4 µM (inactive) | 7.69 µM (inactive) | 14 µM (inactive) | 4.41 µM (inactive) | 4.34 µM (inactive) | 17.6 µM (inactive) | 10 µM (inactive) | – |
| Nc1nc(Cl)c(N)c(NCC2(CO)CCCC2)n1 | > 100 µM (inactive) | 50.5 µM (inactive) | > 100 µM (inactive) | > 100 µM (inactive) | 88.5 µM (inactive) | > 100 µM (inactive) | 84.7 µM (inactive) | > 100 µM (inactive) | > 100 µM (inactive) | > 100 µM (inactive) | > 100 µM (inactive) | > 100 µM (inactive) | > 100 µM (inactive) | > 100 µM (inactive) | 0.826 µM (active) | > 100 µM (inactive) | – |
| CCN(CC)C1Oc2cc3c(cc2C(c2ccc(OC)cc2)C1C)OCO3 (centres undefined) | 22.6 µM (inactive) | 20.8 µM (inactive) | 15.5 µM (inactive) | 15.8 µM (inactive) | 24.8 µM (inactive) | 18.7 µM (inactive) | 29.5 µM (inactive) | 20 µM (inactive) | 23.4 µM (inactive) | 17.1 µM (inactive) | 17 µM (inactive) | 17.3 µM (inactive) | 21.7 µM (inactive) | 30.3 µM (inactive) | 26.9 µM (inactive) | 18.7 µM (inactive) | – |
| CCCSc1ccc2[nH]c(N3C(=O)/C(=C/c4ccc(SC)cc4)N=C3c3ccccc3)cc2c1 | 19.5 µM (inactive) | > 38.7 µM (inactive) | 13.5 µM (inactive) | 19.9 µM (inactive) | 42.6 µM (inactive) | 22.7 µM (inactive) | 29.2 µM (inactive) | 11 µM (inactive) | > 50 µM (inactive) | 18.3 µM (inactive) | 0.242 µM (active) | 29.8 µM (inactive) | > 40.5 µM (inactive) | 18.5 µM (inactive) | 32.1 µM (inactive) | 29 µM (inactive) | – |
| O=C(/C=C/c1ccc(O)c(O)c1)OCCOC(=O)/C=C/c1ccc(O)c(O)c1 | 32.1 µM (inactive) | 34.4 µM (inactive) | 33.1 µM (inactive) | 21.1 µM (inactive) | 21.5 µM (inactive) | 21.4 µM (inactive) | 35 µM (inactive) | 17.6 µM (inactive) | 38 µM (inactive) | 37.2 µM (inactive) | 36.2 µM (inactive) | 27.7 µM (inactive) | 25.9 µM (inactive) | 38.1 µM (inactive) | 24.7 µM (inactive) | 41.5 µM (inactive) | – |
| N#CC1CCCC2SC(F)(F)C(F)(F)C12 (centres undefined) | > 100 µM (inactive) | > 100 µM (inactive) | 26.4 µM (inactive) | > 100 µM (inactive) | > 100 µM (inactive) | > 88.5 µM (inactive) | > 100 µM (inactive) | > 100 µM (inactive) | > 100 µM (inactive) | > 100 µM (inactive) | > 46.8 µM (inactive) | > 100 µM (inactive) | > 100 µM (inactive) | > 100 µM (inactive) | > 100 µM (inactive) | > 100 µM (inactive) | – |
